Test [1] in a line: Cytotoxicity activity against the KB cell culture at less than 10 uM. To be noted: Homo sapiens, read-out: ED50 (the source's name). In kind it is functional.
For test [2], the system named is L1210. The experiment in a line: Inhibition against the proliferation of L1210 leukemia. The class given is functional, cell-based. The settings on record: Mus musculus.
For test [3], the system named is L1210. The experiment in a line: Mitotic index (MI). In kind it is functional, Mus musculus.
Test [4] relates to L1210. Put plainly: Percent increase in life span at 40 mg/kg on a single dose schedule against L1210 leukemia. In kind it is functional. The settings on record: Mus musculus.

A word on the IC50: it is the point on the concentration scale where inhibition reaches its midpoint. A lower IC50 goes with higher potency. As a reminder, the ILS is how much longer treated animals lived than controls. Higher therefore signals a large benefit in survival.

For `CCOC(=O)Nc1cc(Nc2ccccc2)c2[nH]cnc2n1`, the EC50 in test [1] worked out at 9.5 µM.

In the case of `CCOC(=O)Nc1cc(NC(c2ccccc2)c2ccccc2)c2[nH]cnc2n1`, the 50% inhibitory concentration (IC50) in the test on L1210 [2] turned out to be 0.37 µM. In addition, the MI in the test on L1210 [3] turned out to be 1.15 µM. This molecule showed an increase in life span (ILS) at 40 mg/kg in the test on L1210 [4] of 59%.

For the origin of these results see ChEMBL document CHEMBL1123607, “Synthesis of potential anticancer agents: imidazo[4,5-c]pyridines and imidazo[4,5-b]pyridines” (J Med Chem, 1987).
